Reference: EP0452935B1, “Chiral 2-(phosphonomethoxy)propyl guanines as antiviral agents” (INSTITUTE OF ORGANIC CHEMISTRY AND BIOCHEMISTRY OF THE …, priority 1990, dated 1991)
≈ marks a conversion by molar mass, not a printed value.

How the values were obtained:
Format in all cases: cell-based
[1] = test system: herpes simplex virus Type 2 (HSV-2); experiment: plaque reduction assay, HSV-2 in vero cells; conditions: Human alphaherpesvirus 2, G strain, 48 hour incubation
Description: (§1) The compounds were evaluated for antiviral activity in vitro by the standard plaque reduction assay. Experiments were conducted with vero cells (African Green Monkey Kidney cells) infected with herpes simplex virus Type 1 (HSV-1) [BW^s strain, C. D. Sibrack et al., Infect. Dis., 1982, 146, 673] and herpes simplex virus Type 2 (HSV-2) [G strain, obtained from American Tissue Culture Collection, Rockville, MD] and with MRC-5 cells (human embryonic lung (diploid) cells) infected with human cytomegalovirus (HCMV) [AD169 strain, obtained from American Tissue Culture Collection, Rockville, MD]. Briefly, confluent cell monolayers in 24-well plates were infected with 30-50 plaque-forming units of virus in 100 »l of phosphate-buffered saline. After a 1 hour adsorption period, residual inoculum was replaced with 1 mL of the appropriate dilution of the test compound which had been freshly prepared in Eagle's minimal essential medium (EMEM) containing 10% fetal bovine serum. After a 48 hour incubation period at 37°C in a 5% CO₂ atmosphere, cell monolayers were fixed and stained with Carbol fuchsin and plaques were counted. The antiviral potency of the compound was determined by IC₅₀, the inhibitory concentration necessary to reduce the number of plaques by 50% of those in the virus control cultures.

[2] = test system: human cytomegalovirus (HCMV); experiment: plaque reduction assay, HCMV in MRC-5 cells; conditions: Human betaherpesvirus 5, MRC5, AD169 strain
Description: as §1

[3] = test system: human immunodeficiency virus (LAVBRU strain); experiment: anti-HIV XTT assay in infected CEM-SS cells; conditions: for anti-HIV activity (in words): XTT assay (FIGS. 4, 6, 7); for EC50: infected CEM-SS cells, XTT assay, day 7 post-infection, viable cells increased to 50% of uninfected control, NA = Not active at concentrations up to 500 µM, read-out: ED50 (the source's name); for SI: Selectivity Index: Ratio of TD50 to ED50, CEM-SS cells, 10080 min
Description: (§2) Compounds were evaluated for activity against human immunodeficiency virus (LAVBRU strain obtained from Luc Montagnier, Institut Pasteur, Paris, France) in CEM-SS cells (P. L. Nara et al., in AIDS Res. Human. Retroviruses, 1987, 3, 283-302) or in MT-4 cells (S. Harada, et al., in Science, 1985, 229, 563-566) using the XTT assay described by O. S. Weislow et al., in J. Natl. Cancer Instit., 1989, 81, 577-586. CEM-SS cells were obtained from Owen Weislow at the National Cancer Institute, and MT-4 cells were obtained from Doug Richman at the University of California at San Diego. Cells were exposed to HIV and cultured in microtiter plates in the presence of test compounds at concentrations of 0.0013, 0.0064, 0.032, 0.16, 0.8, 4, 20, 100, and 500 »M. On day 7 post-infection, the antiviral effect was measured using the XTT assay in which an optical density (OD) reading is obtained at each drug concentration. The optical density reading is proportional to the number of viable cells. Assays run in infected cells show the antiviral effect of the test compounds, where an increase in the number of viable cells (higher OD reading) reflects the protective, antiviral activity of the compound. Assays run in uninfected cells provide a measure of cellular toxicity. The antiviral effect is also expressed (see Table 2) as the concentration of compound which increases the number of viable cells in infected cultures to 50%, that of the untreated, uninfected control cultures (ED₅₀). The cellular toxicity is expressed as the concentration of compound which reduces the number of viable cells to 50%, that of the untreated control (TD₅₀). The selectivity index (SI) is the ratio of TD₅₀ to ED₅₀. The anti-HIV activity and cellular toxicity of the test compounds are plotted in FIGS. 1-7 as a function of optical density verus increasing log concentrations of the test compounds (XTT assay).

in vitro [4] = conditions: human, cem-ss cells
Description: as §2

in vitro [5] = conditions: human, mt-4 cells
Description: as §2, with “The antiviral effect is also expressed (see Table 2) as the concentration of compound which increases the number of viable cells in infected cultures to 50%, that of the untreated, uninfected control cultures (ED₅₀). The cellular toxicity is expressed as the concentration of compound which reduces the number of viable cells to 50%, that of the untreated control (TD₅₀). The selectivity index (SI) is the ratio of TD₅₀ to ED₅₀. The anti-HIV activity and cellular toxicity of the test compounds are plotted in FIGS. 1-7 as a function of optical density verus increasing log concentrations of the test compounds (XTT assay).” left out

[6] = test system: herpes simplex virus Type 1 (HSV-1); experiment: plaque reduction assay, HSV-1 in vero cells; conditions: Human alphaherpesvirus 1, BW^s strain, 48 hour incubation
Description: as §1

CEM-SS cells = experiment: in vitro
Description: as §2

[7] = test system: human immunodeficiency virus (LAVBRU strain); experiment: anti-HIV XTT assay in infected MT-4 cells; conditions: MT4 cells, XTT assay (FIG. 2)
Description: as §2, with “The antiviral effect is also expressed (see Table 2) as the concentration of compound which increases the number of viable cells in infected cultures to 50%, that of the untreated, uninfected control cultures (ED₅₀). The cellular toxicity is expressed as the concentration of compound which reduces the number of viable cells to 50%, that of the untreated control (TD₅₀). The selectivity index (SI) is the ratio of TD₅₀ to ED₅₀. The anti-HIV activity and cellular toxicity of the test compounds are plotted in FIGS. 1-7 as a function of optical density verus increasing log concentrations of the test compounds (XTT assay).” left out

[8] = Human immunodeficiency virus 1, 168 h

SMILES: C[C@H](Cn1cnc2c(=O)[nH]c(N)nc21)OCP(=O)(O)O [(R)-2'-methyl-PMEG, (R)-9-[2-(phosphonomethoxy)propyl]guanine]
- IC50 [1]: 25 µg/mL (≈ 82.4 µM)
- IC50 [2]: 5 µg/mL (≈ 16.5 µM)
- anti-HIV activity (in words) ([3]; CEM-SS cells): active
- EC50 [3, 8]: 1 µM
- CC50 (in vitro [4]): > 500 µM
- MNTC (in vitro [4]): < 100 µM
- MNTC at 168 h (in vitro [5]): < 100 µM

SMILES: Nc1nc2c(ncn2C[C@H](CO)OCP(=O)(O)O)c(=O)[nH]1 [(R)-HPMPG, (R)-9-[3-hydroxy-2-(phosphonomethoxy)propyl]guanine]
- IC50 [6]: 32 µg/mL (≈ 100 µM)
- IC50 [1]: 32 µg/mL (≈ 100 µM)
- IC50 [2]: 0.5 µg/mL (≈ 1.57 µM)
- anti-HIV activity (in words) ([3]; CEM-SS cells): clearly inactive
- EC50 [3, 8]: 500 µM
- SI [3]: >1
- CC50 (in vitro [4]): > 500 µM

SMILES: C[C@@H](Cn1cnc2c(=O)[nH]c(N)nc21)OCP(=O)(O)O [(S)-2'-methyl-PMEG, (S)-9-[2-(phosphonomethoxy)propyl]guanine]
- IC50 [1]: 25 µg/mL (≈ 82.4 µM)
- IC50 [2]: 5 µg/mL (≈ 16.5 µM)
- anti-HIV activity (in words) ([3]; CEM-SS cells): active
- EC100 ([3]; Human immunodeficiency virus 1, 168 h, CEM-SS cells, XTT assay (FIGS. 3, 5), read-out: concentration giving complete protection from HIV): 100 µM
- EC50 [3, 8]: 12 µM
- SI [3]: 25
- CC50 (in vitro [4]): 300 µM
- MNTC (in vitro [4]): < 100 µM

SMILES: Nc1nc2c(ncn2C[C@@H](CO)OCP(=O)(O)O)c(=O)[nH]1 [(S)-HPMPG, (S)-9-[3-hydroxy-2-(phosphonomethoxy)propyl]guanine]
- IC50 [6]: 8 µg/mL (≈ 25.1 µM)
- IC50 [1]: 31 µg/mL (≈ 97.1 µM)
- IC50 [2]: 0.9 µg/mL (≈ 2.82 µM)
- anti-HIV activity (in words) ([3]; CEM-SS cells): clearly inactive
- CC50 (in vitro [4]): 350 µM

SMILES: Nc1nc2c(ncn2CCOCP(=O)(O)O)c(=O)[nH]1 [PMEG, 9-[2-(phosphonomethoxy)ethyl]guanine]
- IC50 [6]: 0.09 µg/mL (≈ 0.311 µM)
- IC50 [1]: 0.31 µg/mL (≈ 1.07 µM)
- IC50 [2]: < 0.1 µg/mL
- anti-HIV activity (in words) ([3]; CEM-SS cells): some anti-HIV effect
- EC50 [3, 8]: 0.2 µM
- SI [3]: 30
- cytotoxicity relative to (R)-2'-methyl-PMEG (CEM-SS cells): approximately 30 fold
- CC50 (CEM-SS cells; human, cem-ss cells): 15 µM
- anti-HIV effect (in words) [7]: no anti-HIV effect can be measured
- MCC at 168 h (in vitro [5]): > 100 nM
